Values of other authors as cited in US10874130B2, “Steviol glycoside solutions” (PureCircle USA Inc., priority 2015, dated 2020).

Details: heat and pH

Structure (SMILES)	Stability in carbonated beverages
C=C1C[C@@]23CC[C@H]4[C@@](C)(CCC[C@@]4(C)C(=O)O[C@@H]4O[C@H](CO)[C@@H](O)[C@H](O)[C@H]4O)[C@@H]2CC[C@]1(O[C@@H]1O[C@H](CO)[C@@H](O)[C@H](O[C@@H]2O[C@H](CO)[C@@H](O)[C@H](O)[C@H]2O)[C@H]1O[C@@H]1O[C@H](CO)[C@@H](O)[C@H](O)[C@H]1O)C3 [rebaudioside A]	heat and pH stability
C=C1C[C@@]23CC[C@H]4[C@@](C)(CCC[C@@]4(C)C(=O)O[C@@H]4O[C@H](CO)[C@@H](O)[C@H](O)[C@H]4O)[C@@H]2CC[C@]1(O[C@@H]1O[C@H](CO)[C@@H](O)[C@H](O)[C@H]1O[C@@H]1O[C@H](CO)[C@@H](O)[C@H](O)[C@H]1O)C3 [stevioside]	heat and pH stability
